Consider 1 molecule from patent US11624056B2, “Method for producing cartilage cells induced to be differentiated from stem cells” (YiPCELL Inc., priority 2017, dated 2023).

Holding throughout (assay type): cell-based, human
Assay [1] relates to heavy OG cells. Nature of the assay: Proliferation of heavy OG cells cultured in IGF2 inhibitor-treated medium. Here is the method: First, among the OG cells obtained in the step iii) of [Example 12], the heavy cells were cultured for 3 days while treating the medium with chromeceptin at a concentration of 2 nM to 2 μM, in the course of inducing differentiation into a chondrogenic pellet according to the step iv). Then, morphology of the cells was observed over the treatment time, and the number of the proliferated cells was counted.

The subject of assay [2] is heavy OG cells. The experiment in a line: Chondrogenic differentiation markers of heavy OG cells cultured in IGF2 inhibitor-treated medium. An excerpt: Accordingly, heavy OG cells were induced to differentiate into a chondrogenic pellet while performing treatment with chromeceptin under the conditions of Example <16-1>, during which the OG cells were obtained, and mRNA was extracted therefrom and used to synthesize cDNA. Using the synthesized cDNA as a template, expression levels of SOX9, COL2A1, COL10A1, and IGF2 were quantitatively analyzed.

In assay [3] the test system is heavy OG cells. Nature of the assay: Chondrocyte markers in chondrogenic pellet differentiated in IGF2 inhibitor-treated medium. Conditions: 2 mM chromeceptin, treatment after aggregation compared with before aggregation. Here is the method:
First, among the OG cells obtained in the step iii) of [Example 12], the heavy cells were cultured for 3 days while treating the medium with chromeceptin at a concentration of 2 mM, in the course of inducing differentiation into a chondrogenic pellet according to the step iv). Experimental groups were divided into two groups, that is, the experimental group (before aggregation) in which differentiation into chondrocytes had been induced by performing treatment with chromeceptin from the beginning of formation of a chondrogenic pellet, and the experimental group (after aggregation) in which differentiation into chondrocytes had been induced by performing treatment with chromeceptin from 7 days after induction of formation of a chondrogenic pellet. The differentiated chondrogenic pellets were respectively obtained therefrom. Then, mRNA was extracted from each of the obtained chondrogenic pellets, and the expression levels of COL2A1, SOX9, COL1A1 and COL10A1 were checked.

On to `CN(C)c1ccc2c(c1)OC(N)=C(C#N)C2c1cccc(C(F)(F)F)c1` (stereo not drawn) [chromeceptin], for which the “decrease of the number of OG cells” value in the assay with heavy OG cells [1] (2 μM chromeceptin, after 72 hours, compared with untreated control) is ≥ 3 times. For the same molecule, the “degree of proliferation of the cells” value in the assay with heavy OG cells [1] (chromeceptin 2 nM to 2 μM, 3 days) is “decreases with increased treatment concentration”. Further, the “expression level of SOX9” value with heavy OG cells [2] (2 μM chromeceptin, compared with untreated control (Normal Ctrl)) is on record as “remarkably increases”. Also, in the assay with heavy OG cells [2] (chromeceptin 2 nM to 2 μM), the “expression level of IGF2 in the OG cells” value was “decreases with increased treatment concentration” and the “expression level of SOX9” value is reported as “significantly increases with increased treatment concentration”. In addition, the “expression level of SOX9 in chondrogenic pellet” value with heavy OG cells [3] is given as “significantly increased”.
